Reference: the METLIN SMRT retention time set (Domingo-Almenara et al. 2019)

Assay: gradient 5% acetonitrile 3 min, to 50% in 2 min, to 85% in 15 min, held 3 min, 100 µL/min
Conditions: column: Zorbax Extend-C18 2.1 x 50 mm; eluents: water / acetonitrile, 0.1% formic acid
Summary of the method: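 Values are retention times taken from adduct peaks that software picked and an analyst inspected. The pure standards were run as mixtures of ~100 molecules on HPLC linked to a quadrupole time-of-flight mass spectrometer, in positive and negative ionization mode. A Zorbax Extend-C18 column (2.1 × 50 mm, 1.8 μm) was used at 100 μL/min with water and acetonitrile, each including 0.1% formic acid.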

RP-LC retention time [s]	Compound
902	O=C(NCCCc1ccccc1)c1cccc2c1CCN2C(=O)C1CC1
828	COc1ccccc1NC(=O)N1C[C@@H](F)C[C@H]1C(=O)N1CCc2ccccc2C1
662	COc1ccc(OC)c(Nc2c(C(=O)N3CCC(C)CC3)cnc3nc(C)ccc23)c1
1040	CCOc1ccc(CNC(=O)c2snc(C(=O)NCc3ccc(F)cc3)c2N)cc1
612	Cn1cc(-c2cc3n(n2)CCC(=O)N3CC(=O)NCCN2CCOCC2)c2ccccc21
737	Cc1ccc2c(Nc3ccc(C(C)C)cc3)c(C(=O)N3CCCC(C)C3)cnc2n1 (stereo unspecified)
1120	Fc1ccc(Nc2nc(-c3ccccc3)cs2)cc1
947	Nc1ccc(Nc2nc(-c3ccc(Cl)cc3)cs2)cc1
896	Fc1ccc(-c2csc(Nc3ccccn3)n2)cc1
662	COc1nn(C)cc1C(=O)NCc1cc(-c2cccs2)on1
888	O=C(c1ccc2[nH]ccc2c1)N1CCCN(C2CCN(CC3CC3)C2=O)CC1 (stereo unspecified)
681	CCOc1ccc(NC(=O)N2CCN(Cc3nc4ccccc4o3)CC2)cc1
706	Cc1cc(NC(=O)N2CCC(n3c(C)nc4cccnc43)CC2)ccc1Br
936	CCc1csc(-c2ccc(N3CCN(C(=O)c4ccc(OC)c(F)c4)CC3)nc2)n1
674	O=C(c1cc(-c2ccc3c(c2)OCO3)nc2ccccc12)N1CCN(c2ccccn2)CC1
1130	Cc1cccc(-n2c(=O)c3sccc3n(Cc3nc(-c4cccc(Br)c4)no3)c2=O)c1
893	O=C(NCCc1csc(-c2ccccc2)n1)C1CCN(S(=O)(=O)c2ccccc2F)CC1

RP-LC retention time [s]	Compound
930	CCOC(=O)c1ccc(N2C=C(C#N)S(=O)(=O)c3c(F)cccc32)cc1
586	CN1CCCN(C(=O)c2ccc(-c3ccsc3)nc2)CC1
885	CCOc1ccc(N2C(=O)C3N=NN(Cc4nc(-c5ccccc5)no4)C3C2=O)cc1 (stereo unspecified)
833	O=C(c1cn(-c2cc(-c3nc(C4CC4)no3)ccn2)cn1)N1CCSCC1
824	COc1ccc(-c2nnc(N3CCC(C(=O)NCc4cc(F)ccc4F)CC3)o2)cc1
758	COc1cccc2sc(N(C)CC(=O)N3CCn4c3nc3ccccc34)nc12
1300	CCc1ccc(S(=O)(=O)N2CCCC2c2nc(-c3cccc(Cl)c3)no2)cc1 (stereo unspecified)
852	COc1ccc(N2CCN(C(=O)c3ccc(-c4cccs4)nc3)CC2)cc1
723	CCOc1ccc(C(=O)Nc2cc(-c3cn4cccnc4n3)ccc2OC)cc1
1080	CCc1nc(-n2cccc2)sc1C(=O)Nc1ccc(F)cc1
765	COc1ccc(CCNC(=O)C2=C3CCCN3c3ccccc3S2(=O)=O)cc1OC
1060	O=C(OCc1cc(-c2cccs2)on1)c1ncc(-c2ccccc2)o1
1170	Cc1ccc(NC(=O)CCc2nc(-c3ccc(N4CCCC4)cc3)no2)c(Br)c1
784	CSc1ccc(-c2nc3cnccn3c2Nc2cccc(C(=O)NC(C)C)c2)cc1
1260	Cc1cc(S(=O)(=O)N2CCc3nc(-c4ccc(Cl)cc4)ncc3C2)ccc1F
784	CC(=O)N1CCc2cc(S(=O)(=O)Nc3ccc4c(c3)-c3nc(C)sc3CC4)ccc21

Continued, molecule first:

Compound	RP-LC retention time [s]
CCCCNC(=O)c1ccc2c(c1)CCCN2S(C)(=O)=O	774
CC(=O)[C@H]1CC[C@H]2[C@@H]3CCC4=CC(=O)C=C[C@]4(C)[C@H]3C(=O)C[C@]12C	921
CCN(CC)C(=O)c1cc(C)nc2c1c(=O)n(Cc1ccccc1C)c(=O)n2C	938
Cc1[nH]cnc1CN1CCc2c(c3ccccc3n2C)C1=O	652
CCn1nc(C)c(CCNC(=O)C(C)n2c3ccccc3c3cnn(C)c(=O)c32)c1C (stereo unspecified)	656
COc1cc(NC(=O)Cn2cccc2-c2nnc(C3CCC3)o2)cc(OC)c1	876
CSCC(=O)N1CCC(C2CCN(C(C)=O)CC2)C1 (stereo unspecified)	624
O=C1C2N=NN(Cc3nc(-c4ccccc4Cl)no3)C2C(=O)N1c1ccc2c(c1)CCC2 (stereo unspecified)	1070
NC(CO)(CO)CCc1ccc(Sc2cccc(OCc3ccccc3)c2)cc1Cl	837
Cc1cc(C)n(-c2ccnc(NCC(C)C)n2)n1	747
CCN1CCN(CCCNC(=O)Cc2c(C(=O)O)c(C)cn2CC)CC1	563
CC(C)(C)NC(=O)Cc1cccn1-c1ccc(Cl)cc1	994
CNC(=O)C1CN(C(=O)c2cccc(C(F)(F)F)c2)CC12CCCC2 (stereo unspecified)	749
Cc1nc(-c2cccc(C(=O)NC(C)C)c2)no1	596
Cc1cccc(C)c1NC(=O)CCCSc1nnnn1-c1ccccc1	810
Cn1nc(C(=O)N2CCCC(C(=O)NC3CC3)C2)c2c1CCN(C(=O)c1cccc(F)c1)C2 (stereo unspecified)	646
Cc1noc2ncnc(N3CCC(C(=O)NCCN(C)C)CC3)c12	567
O=C(Cc1csc(-n2cccc2)n1)NCc1nc(-c2ccccc2)no1	821
CC(=O)Nc1cccc2c(C(=O)NCCC(C)C)ccnc12	777
COc1ccc(CN2CC(F)(F)C[C@H]2c2nnc(-c3cnccn3)o2)cc1C	912

Compound	RP-LC retention time [s]
Cn1nc(-c2nnc(-c3ccccc3F)o2)c2c1CCN(S(=O)(=O)c1ccc(F)cc1F)C2	922
O=C(C1CCC1)N1CCC(c2nc(C3CCOCC3)no2)C1 (stereo unspecified)	671
Cc1ccn2cc(C(=O)NC3CCCCCC3)nc2c1	683
O=C(c1csc(C(=O)N2CCCC2)n1)N1CCSCC1	700
O=C(CNC(=O)c1ccc2c(c1)OCO2)Nc1nc2ccccc2[nH]1	611
COCCN1C(=O)CCC2(C(=O)NCCc3ccncc3)CCCC=C12 (stereo unspecified)	542
O=C1NC(Cc2c[nH]c3ccccc23)C(=O)N1c1cccc(Cl)c1 (stereo unspecified)	790
CCn1c(SC)nnc1-c1nn(C)c2c1CN(C(=O)C1CCCCC1)CC2	815
O=C(NC1CC1)C1CCN(c2cncnc2N2CCCCC2)CC1	607
Cc1nc(-c2noc(-c3ccccc3)n2)cn1CC(=O)NCc1ccccc1F	810
O=C(NCc1ccncc1)C1CN(S(=O)(=O)c2ccccc2)CC12CCCCC2 (stereo unspecified)	594
Cc1cc(N2CCC(C)CC2)n2ncnc2n1	790
Cc1ccc(NC(=O)Cn2nc3n(c2=O)CCCCC3)cc1C	717
CN(C1CCc2nn(CC3CC3)c(=O)n2CC1)S(=O)(=O)Cc1ccccc1 (stereo unspecified)	747
CN(CCNC(=O)C1CCCN(c2nnc(-n3cccc3)s2)C1)C1CCCCC1 (stereo unspecified)	650
CCCCc1c(C)n(CC(=O)NCC2CCCO2)c2nc(-c3ccccc3)nn2c1=O (stereo unspecified)	831
CCOC(=O)c1c(S(=O)(=O)N2CCC(C(=O)N3CCc4ccccc4C3)CC2)c(C)n(C)c1C	872
O=C(Cn1cccc(-c2nc(-c3ccc(F)cc3)no2)c1=O)Nc1cccc(Br)c1	950
Cc1ccc(-c2noc(C3CCCN3S(=O)(=O)c3ccc4c(c3)CCC4)n2)cc1 (stereo unspecified)	1280
Cc1cccc(CCNC(=O)C2CCN(S(=O)(=O)N3CCOCC3)CC2)c1	769

Compound	RP-LC retention time [s]
COC(=O)c1cc(S(=O)(=O)N2CCCC2C(=O)Nc2cc(F)ccc2F)cn1C (stereo unspecified)	911
COCCN1CCCCc2cc(C(N)=O)sc21	708
Cc1nnc(C2CC3(CCN(CCO)CC3)CN2Cc2ccccc2)o1 (stereo unspecified)	565
COc1ccc(CNC(=O)c2nnn(Cc3nc(-c4ccccc4)oc3C)c2N)cc1OC	859
COc1cc(NC(=O)CCl)ccc(=O)c1	631
O=C(CNC(=O)c1cccs1)Nc1nc2ccccc2[nH]1	599
O=C(Cn1c(=O)oc2ccccc21)NCC12CCCC=C1NC(=O)CC2 (stereo unspecified)	678
CN(C)CCNC(=O)Cc1cccn1-c1ccc(F)cc1	598
COc1ccc(CNC(=O)CN2C(=O)NC3(CCC(C(C)(C)C)CC3)C2=O)cc1OC (stereo unspecified)	863
CCCCOc1ccc(NC(=O)c2oc3cc(C)c(Cl)cc3c2C)c2cccnc12	1030
COc1ccc(-c2noc(CS(=O)(=O)c3ccc(C)cc3)n2)cc1OC	990
COc1ccc(Cl)cc1NC(=O)CN1C(=O)NC2(CCCCC2C)C1=O (stereo unspecified)	838
CCCCN1C(=O)CN(S(=O)(=O)c2ccccc2)CC1(C)C(=O)NCc1ccc(F)cc1 (stereo unspecified)	945
CC(=O)Nc1ccc(-c2nc(-c3ccc4c(c3)oc(=O)n4C(C)C)no2)cc1	943
Fc1ccc(-c2noc(-c3nnc(NCCCN4CCOCC4)c4ccccc34)n2)cc1	700
CCc1cccc(NC(=O)c2cn(C)nc2S(=O)(=O)N2CCSCC2)c1	1030
O=C(Nc1cccnc1Cl)C1CCCN(c2ncnc3c2nc2n3CCCCC2)C1 (stereo unspecified)	717
Cc1ccoc1C(=O)Nc1ccc(C(N)=O)cc1	629
